According to article PMC12837263, “β,β-Dimethylacrylalkannin Restores Colistin Efficacy Against mcr- and TCS-Mediated Resistant Gram-Negative Bacteria via Membrane Disturbance” (Antibiotics, 2025):

What was measured:
Assay type in all cases: cell-based
A. baumannii ATCC 19606 = assay: Checkerboard assay (MIC, FICI)
Description: (§1) The FICI of β,β-Dim–colistin combination was determined by a checkerboard assay. Briefly, two-fold serial dilutions of β,β-Dim and colistin were prepared in a 96-well plate. After incubation at 37 °C for 18 h with bacterial suspension (10^6 CFU/mL), OD600 values were measured. FICI = (MICβ,β-Dim in combination/MICβ,β-Dim) + (MICcolistin in combination/MICcolistin). The synergistic effect of β,β-Dim with other antibiotics was measured in the same way. Synergy was considered to be an FICI ≤ 0.5.

E. coli 13f4(mcr-1) = assay: Checkerboard assay (MIC, FICI)
Description: as §1

E. coli ATCC 25922 = assay: Checkerboard assay (MIC, FICI)
Description: as §1

[1] = test system: E. coli BW25113-184-mcr-1; assay: Checkerboard assay (MIC, FICI)
Description: as §1

E. coli BW25113-184 = assay: Checkerboard assay (MIC, FICI)
Description: as §1

[2] = test system: E. coli BW25113-pmrAD82N(pmrA); assay: Checkerboard assay (MIC, FICI)
Description: as §1

[3] = test system: E. coli BW25113-pmrBR93P(pmrB); assay: Checkerboard assay (MIC, FICI)
Description: as §1

E. coli ZJ71(mcr-1) = assay: Checkerboard assay (MIC, FICI)
Description: as §1

E. coli pHSG299-mcr-3 = assay: Checkerboard assay (MIC, FICI)
Description: as §1

K. pneumoniae 109(mcr-8) = assay: Checkerboard assay (MIC, FICI)
Description: as §1

K. pneumoniae 126(mcr-8) = assay: Checkerboard assay (MIC, FICI)
Description: as §1

[4] = test system: K. pneumoniae 197(mcr-1、blaNDM); assay: Checkerboard assay (MIC, FICI)
Description: as §1

K. pneumoniae 20(mcr-1) = assay: Checkerboard assay (MIC, FICI)
Description: as §1

[5] = test system: K. pneumoniae 251(mgrB、phoP、pmrA、blaKPC); assay: Checkerboard assay (MIC, FICI)
Description: as §1

[6] = test system: K. pneumoniae 29(mcr-8、pmrB、blaNDM); assay: Checkerboard assay (MIC, FICI)
Description: as §1

[7] = test system: K. pneumoniae 492(mcr-1、blaNDM); assay: Checkerboard assay (MIC, FICI)
Description: as §1

[8] = test system: K. pneumoniae 57(mcr-9、blaNDM); assay: Checkerboard assay (MIC, FICI)
Description: as §1

[9] = test system: K. pneumoniae 650(mgrB、phoP、pmrA、blaKPC); assay: Checkerboard assay (MIC, FICI)
Description: as §1

[10] = test system: K. pneumoniae 667(phoP、pmrA、blaKPC); assay: Checkerboard assay (MIC, FICI)
Description: as §1

K. pneumoniae ATCC 13883 = assay: Checkerboard assay (MIC, FICI)
Description: as §1

P. aeruginosa 9(mcr-1) = assay: Checkerboard assay (MIC, FICI)
Description: as §1

P. aeruginosa PAO1 = assay: Checkerboard assay (MIC, FICI)
Description: as §1

[11] = test system: S. Typhimurium 9891(mcr-1); assay: Checkerboard assay (MIC, FICI)
Description: as §1

[12] = test system: S. Typhimurium ATCC 14028; assay: Checkerboard assay (MIC, FICI)
Description: as §1

[13] = test system: K. pneumoniae, E. coli, Salmonella, P. aeruginosa, and A. baumannii; assay: Checkerboard assay, panel of tested strains (summary statements)
Description: as §1

K. pneumoniae 667 = assay: Bacterial growth curves; settings: β,β-Dim 4 µg/mL, colistin 0.5 µg/mL, alone or combined; 24 h
Description: Overnight cultures of K. pneumoniae 667 and E. coli 13f4 were diluted to 10^6 CFU/mL; then, β,β-Dim (4 μg/mL), colistin (0.5 or 2 μg/mL), and their combination were co-incubated with bacterial suspensions in a 96-well plate. OD600 values were monitored hourly over a 24 h period.

[14] = Escherichia coli, read-out: MIC of β,β-Dim
[15] = Escherichia coli, BW25113, read-out: MIC of β,β-Dim
[16] = Klebsiella pneumoniae, read-out: MIC of β,β-Dim

## CC(C)=CC[C@H](OC(=O)C=C(C)C)C1=CC(=O)c2c(O)ccc(O)c2C1=O [β,β-Dim, β,β-dimethylacrylalkannin]
A. baumannii ATCC 19606; 19606, with colistin
  MIC of β,β-Dim [Combination]: 4 µg/mL
A. baumannii ATCC 19606; Acinetobacter baumannii, ATCC19606, read-out: MIC of β,β-Dim
  MIC: > 128 µg/mL
E. coli 13f4(mcr-1); 13f4, with colistin
  MIC of β,β-Dim [Combination]: 4 µg/mL
E. coli 13f4(mcr-1); [14]
  MIC: > 128 µg/mL
E. coli ATCC 25922; 25922, with colistin
  MIC of β,β-Dim [Combination]: 2 µg/mL
E. coli ATCC 25922; Escherichia coli, ATCC25922, read-out: MIC of β,β-Dim
  MIC: > 128 µg/mL
[1]; BW25113-184-mcr-1, with colistin
  MIC of β,β-Dim [Combination]: 4 µg/mL
[1]; [15]
  MIC: > 128 µg/mL
E. coli BW25113-184; BW25113-184, with colistin
  MIC of β,β-Dim [Combination]: 2 µg/mL
E. coli BW25113-184; [15]
  MIC: > 128 µg/mL
[2]; BW25113-pmrAD82N, with colistin
  MIC of β,β-Dim [Combination]: 8 µg/mL
[2]; [15]
  MIC: > 128 µg/mL
[3]; BW25113-pmrBR93P, with colistin
  MIC of β,β-Dim [Combination]: 8 µg/mL
[3]; [15]
  MIC: > 128 µg/mL
E. coli ZJ71(mcr-1); [14]
  MIC: > 128 µg/mL
E. coli ZJ71(mcr-1); ZJ71, with colistin
  MIC of β,β-Dim [Combination]: 4 µg/mL
E. coli pHSG299-mcr-3; Escherichia coli, PHSG299MCR3, read-out: MIC of β,β-Dim
  MIC: > 128 µg/mL
E. coli pHSG299-mcr-3; pHSG299-mcr-3, with colistin
  MIC of β,β-Dim [Combination]: 8 µg/mL
K. pneumoniae 109(mcr-8); 109, with colistin
  MIC of β,β-Dim [Combination]: 4 µg/mL
K. pneumoniae 109(mcr-8); [16]
  MIC: > 128 µg/mL
K. pneumoniae 126(mcr-8); 126, with colistin
  MIC of β,β-Dim [Combination]: 8 µg/mL
K. pneumoniae 126(mcr-8); [16]
  MIC: > 128 µg/mL
[4]; 197, with colistin
  MIC of β,β-Dim [Combination]: 8 µg/mL
[4]; [16]
  MIC: > 128 µg/mL
K. pneumoniae 20(mcr-1); 20(mcr-1), with colistin
  MIC of β,β-Dim [Combination]: 4 µg/mL
K. pneumoniae 20(mcr-1); [16]
  MIC: > 128 µg/mL
[5]; 251, with colistin
  MIC of β,β-Dim [Combination]: 4 µg/mL
[5]; [16]
  MIC: > 128 µg/mL
[6]; 29, with colistin
  MIC of β,β-Dim [Combination]: 4 µg/mL
[6]; [16]
  MIC: > 128 µg/mL
[7]; 492, with colistin
  MIC of β,β-Dim [Combination]: 2 µg/mL
[7]; [16]
  MIC: > 128 µg/mL
[8]; 57, with colistin
  MIC of β,β-Dim [Combination]: 8 µg/mL
[8]; [16]
  MIC: > 128 µg/mL
[9]; 650, with colistin
  MIC of β,β-Dim [Combination]: 8 µg/mL
[9]; [16]
  MIC: > 128 µg/mL
[10]; 667, with colistin
  MIC of β,β-Dim [Combination]: 2 µg/mL
[10]; [16]
  MIC: > 128 µg/mL
K. pneumoniae ATCC 13883; 13883, with colistin
  MIC of β,β-Dim [Combination]: 2 µg/mL
K. pneumoniae ATCC 13883; Klebsiella pneumoniae, ATCC13883, read-out: MIC of β,β-Dim
  MIC: > 128 µg/mL
P. aeruginosa 9(mcr-1); P. aeruginosa 9, with colistin
  MIC of β,β-Dim [Combination]: 16 µg/mL
P. aeruginosa 9(mcr-1); Pseudomonas aeruginosa, read-out: MIC of β,β-Dim
  MIC: > 128 µg/mL
P. aeruginosa PAO1; PAO1, with colistin
  MIC of β,β-Dim [Combination]: 2 µg/mL
P. aeruginosa PAO1; Pseudomonas aeruginosa, PAO1, read-out: MIC of β,β-Dim
  MIC: > 128 µg/mL
[11]; 9891, with colistin
  MIC of β,β-Dim [Combination]: 8 µg/mL
[11]; Salmonella enterica, TYPHIMURIUM, read-out: MIC of β,β-Dim
  MIC: > 128 µg/mL
[12]; 14028, with colistin
  MIC of β,β-Dim [Combination]: 0.5 µg/mL
[12]; Salmonella enterica, read-out: MIC of β,β-Dim
  MIC: > 128 µg/mL
[13]; β,β-Dim alone
  antibacterial activity against Gram-negative bacteria: did not exhibit antibacterial activity
[13]; β,β-Dim with colistin, summary over tested strains
  FICI: < 0.5
K. pneumoniae 667
  bacterial growth (growth curves): neither β,β-Dim (4 µg/mL) nor colistin (0.5 µg/mL) alone inhibited the growth
